Bounds are passed on as bounds.

One assay concerns FRDA fibroblasts. Kind of assay: FRDA fibroblast assay for protection from oxidative stress (BSO). The format is cell-based. Conditions: Homo sapiens, preincubation 24 h before 1 mM BSO, read-out: EC50, reduced cell death in FRDA fibroblasts compared to untreated FRDA fibroblasts. An excerpt:
A cellular assay using FRDA-patient derived fibroblasts (as described by Jauslin, M L et al, Human Molecular Genetics 11; 3055-3063 (2002)); was used to determine the protective effects of the test compounds by analyzing survival of dermal fibroblasts taken from FRDA patients and unaffected normal donors under conditions of partial GSH depletion. Exposure of FRDA fibroblasts to BSO (L-buthionine (S,R)-sulfoximine) under conditions of restricted selenium causes depletion of cellular glutathione (GSH) and severe plasma membrane damage leading to cell death. Preincubation with the test compounds before the addition of BSO was used to determine if they could protect FRDA cells from BSO-mediated cell death.
Primary fibroblasts were derived from donors with a molecular diagnosis of FRDA and control donors with no mitochondria) disease. Lines F2, C2 and C3 were obtained from Coriell Cell Repositories (Camden, N.J., USA; catalog nos GM04078, GM 08402 and GM08399, respectively). All cell types were diagnosed at the molecular level for intronic GAA triplet repeat length in the frataxin gene using a PCR-based method, according to methods known in the art. […] The cells were seeded in 96-well plates at a density of 4000 cells per 100 pI in growth medium consisting of 25% (v/v) M199 EBS and 64% (v/v) MEM EBS without phenol red (Bioconcept, Allschwil, Switzerland) supplemented with 10% (v/v) fetal calf serum (PAA Laboratories, Linz, Austria), 100 U/ml penicillin, 100 μg/ml streptomycin (PAA Laboratories, Linz, Austria), 10 μg/ml insulin (Sigma, Buchs, Switzerland), 10 ng/ml EGF (Sigma, Buchs, Switzerland), 10 ng/ml bFGF (PreproTech, Rocky Hill, N.J., USA) and 2 mM glutamine (Sigma, Buchs, Switzerland). The cells were incubated in the presence of the various test compounds for 24 h before addition of 1 mM BSO (L-buthionine (S,R)-sulfoximine).
Cell viability was measured after the first signs of toxicity appeared in the BSO-treated controls (typically after 16-48 h). The cells were stained for 60 min at room temperature in PBS with 1.2 μm calceinAM and 4 pm ethidium homodimer (Live/Dead assay, Molecular Probes, Eugene, Oreg., USA). Fluorescence intensity was measured with a Gemini Spectramax XS spectrofluorimeter (Molecular Devices, Sunnyvale, Calif., USA) using excitation and emission wavelengths of 485 and 525 nm, respectively.
`Cc1c(O)cc2c(c1C)OC(C)(CC/C=C1\SC(=O)NC1=O)CC2` (stereo not drawn) [5-[3-(6-Hydroxy-2,7,8-trimethyl-chroman-2-yl)-propylidene]-thiazolidine-2,4-dione]: the EC50 (as a rule, the concentration at which the effect is half-maximal) lay in the range of 0.01 to 6 µM.

With `C=CCSCc1c(O)c(C)c(C)c2c1CCC(C)(C)O2` [5-Allylsulfanylmethyl-2,2,7,8-tetramethyl-chroman-6-ol], the EC50 is 0.01 to 6 µM.

Turning to `CC1=NN(c2ccccc2)C(=O)C1C(CCC1(C)CCc2cc(O)c(C)c(C)c2O1)C1C(=O)N(c2ccccc2)N=C1C` (stereo not drawn) [1-(6-Hydroxy-2,7,8-trimethyl-chroman-2-yl)-3-bis-(5-methyl-2-phenyl-2,4-dihydro-pyrazol-3-one-4-yl)-propane], the EC50 is 0.01 to 6 µM.

Another assay concerns release of the leukotriene LTB4 from MPRO cell line. Kind of assay: LTB4 assay (competitive ELISA). The format is cell-based. Particulars: Mus musculus; 1 μM calcium ionophore A23187, 1 hour; read-out: EC50, inhibition of LTB4 production. An excerpt: This procedure was used for measuring the release of the leukotriene LTB4 from a neutrophil cell line using a competitive ELISA technique.
• MPRO cell line (ATCC, Catalog #CRL-11422) • Calciumionophore (A23187) (Sigma, Catalog #C7522) • Nordihydroguaiaretic acid (NDGA) (BioMol, Catalog #E1101-0001) • Retinoic Acid (all-trans) (ATRA) (Sigma, Catalog #95152) • Sterile, tissue-culture treated 96-well plates (Corning, Catalog #3614) Materials for LTB4 ELISA • Precoated (Mouse Anti-Rabbit IgG) EIA 96 Well Strip Plates (Cayman, Catalog #400004) • Leukotriene B4 AChE Tracer (Cayman Catalog #420110) • Leukotriene B4 EIA Antiserum (Cayman Catalog #420112) • Ellman's Reagent (Cayman Catalog #400050) • EIA Buffer Concentrate (10×) (Cayman Catalog #400060) • Wash Buffer Concentrate (400×) (Cayman Catalog #400062) • Plastic plate covers (Cayman Catalog #400012) Procedure
A mouse promyelocytic cell line (MPRO) was used in this assay. These cells are committed immature neutrophils that can be differentiated into mature neutrophils by treatment with 10 μM all-trans retinoic acid for 72 hours
Following 72 hours of differentiation, cells were stimulated with 1 μM of a calcium ionophore (A23187) in the presence or absence of test compound or vehicle for 1 hour at 370 C. After this time, supernatant was removed from the cells and the LTB4 levels were determined following manufacturer's instructions, using a Leukotriene B4 EIA kit from Cayman (Cat #520111)
The negative controls were media samples from differentiated but unstimulated cells.
The compounds were screened at 5 concentrations in quadruplicate starting at 10 μM
For `COC(=O)c1ccc(-c2c(O)c(C)c(C)c3c2CCC(C)(C)O3)cc1` [4-(6-Hydroxy-2,2,7,8-tetramethyl-chroman-5-yl)-benzoic acid methyl ester], the EC50 is below 1 µM.

As to `Cc1c(C)c2c(c(C)c1O)CCC(C)(C=C(Br)Br)O2` (stereo not drawn) [2-(2,2-Dibromo-vinyl)-2,5,7,8-tetramethyl-chroman-6-ol], the EC50 was below 1 µM.

Take `C=CCSCc1c(O)c(C)c(C)c2c1CCC(C)(C)O2` [5-Allylsulfanylmethyl-2,2,7,8-tetramethyl-chroman-6-ol]: the EC50 is below 1 µM.
